Here are results for three compounds from PubChem BioAssay AID1963870 (Molecular Pharmacology Branch, DTP, NCI, 2024).

The test system of the assay is 292921-168-R-J2-PDC KRAS tumor spheroid viability. The assay can be described thus: Anticancer human tumor 292921-168-R-J2-PDC patient-derived pancreatic carcinoma cell line growth inhibition [KRAS2]. Particulars: spheroids with HUVEC and MSC; for viability, T/C: stronger effect = lower value. From the text: Multicellular complex tumor spheroid response to RAS pathway inhibitors in combination with a targeted agents in patient-derived cell lines with oncogenic KRAS variants from multiple cancer types
A high-throughput screen of multi-cell type tumor spheroids was designed to identify active combinations of targeted small molecules and KRAS pathway inhibitors. Complex spheroids include a stromal component modeled by human endothelial cells (HUVEC) and fibroblasts modeled by human mesenchymal stem cells (MSCs). The concentration ranges selected for each drug and investigational agent were based upon clinically achievable concentrations if the clinical Cmax of the agent was known.
Compounds. The drugs and investigational agents: BI-3406 (NSC825286), BAY-293 (NSC824723), batoprotafib (TNO155; NSC825523), sotorasib (AMG 510; NSC818433), MRTX1257 (NSC819558), elimusertib (BAY 1895344; NSC800525), molibresib (GSK525762; NSC774829), temuterkib (LY3214996; NSC803410), venetoclax (NSC766270), alisertib (NSC759677), olaparib (NSC753686), talazoparib (NSC767125), erdafitinib (NSC781556), ipatasertib (NSC767898), cabozantinib (NSC761068), nintedanib (NSC756659), abemaciclib (NSC768073), docetaxel (NSC628503), trametinib (NSC758246), and sapanisertib (NSC764658) were obtained from the National Cancer Institute (NCI) Developmental Therapeutics Program Chemical Repository. The FDA-approved anticancer drug set is available from the Developmental Therapeutics Program. […] The stock solutions were prepared in dimethyl sulfoxide (DMSO, Sigma-Aldrich, St. Louis, MO, cat. D2650) at 800-fold the tested concentration and stored at -70 degrees C prior to their use. All drugs and investigational agents were tested over a range starting from a high concentration at or near the clinical Cmax and decreasing in half-log increments. If the clinical Cmax for an agent had not been determined, the highest concentration tested was 10 microM.
Cell Culture. All cells were maintained in an incubator at 37 degrees C and 5% CO2 with 95% humidity. The PDC lines were cultured according to standard operating procedures established by the NCI PDMR (https://pdmr.cancer.gov/sops/default.htm). Briefly, all PDCs were thawed and cultured in Matrigel-coated flasks prepared with a working solution of 1X Ham's F-12 nutrient mix, without supplementation (Invitrogen, Waltham, MA, cat. 11765054), 100 U/mL penicillin-streptomycin (Invitrogen, cat. 15140122), and 2.5% Matrigel (Corning Inc., Corning, NY, cat. 354248) for the first three passages. All PDCs were cultured in complete DMEM/F-12 media containing advanced DMEM/F-12 (Invitrogen, cat. 12634028), 4.9% defined fetal bovine serum, heat inactivated (HyClone Laboratories Inc., Logan, UT, cat. SH30070.03HI), 389 ng/mL hydrocortisone (Sigma-Aldrich, cat. H4001), 9.7 ng/mL human EGF recombinant protein (Invitrogen, cat. PHG0313), 23.4 microg/mL adenine (Sigma-Aldrich, cat. A2786), 97.3 U/mL penicillin-streptomycin (Invitrogen, cat. 15140122), 1.9 mM L-glutamine (Invitrogen, cat. 25030081), and 9.7 microM Y-27632 dihydrochloride (Tocris Bioscience, Bristol, United Kingdom, cat. 1254). The PDCs were cultured in complete DMEM/F12 media without 9.7 microM Y-27632 dihydrochloride for at least two passages prior to the screen. The established cell line HOP-62 was cultured in RPMI 1640 medium, HEPES (Invitrogen, cat. 22400105) with 10% defined fetal bovine serum (HyClone Laboratories Inc., cat. SH30070.03) and 2 mM L-glutamine (Invitrogen, cat. 25030081). The pooled donor HUVEC were cultured in endothelial cell growth medium 2 (PromoCell, Heidelberg, Germany, cat. C-22011) and the hMSC were cultured in mesenchymal stem cell growth medium 2 (PromoCell, cat. C-28009). For all experiments, HUVEC and hMSC were used at passages </=5, while the malignant cell lines were used at passages </=15. […]

The mark [1] stands for this setting: compound alone, run of 09/02/2021.

Bounds are passed on as bounds.
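Further: drug exposure lasted seven days after spheroids formed for three days.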
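Wherever viability, T/C is given: percent of DMSO vehicle control viability which is 100%.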

On to `CC1OCC2(CCN(c3cnc(Sc4ccnc(N)c4Cl)c(N)n3)CC2)C1N` (stereo not given), for which the viability, T/C (compound 0.0316 µM) is 86.4% [middle of 4 runs]. The IC50 is 696 nM [middle of 5 runs] (compound alone, run of 08/26/2021); 524 nM [middle of 5 runs] under setting [1]; 619 nM [middle of 5 runs] (curve of compound).

Take `COc1cc2nc(C)nc(NC(C)c3cc(N)cc(C(F)(F)F)c3)c2cc1OC1CCOC1` (stereo not given): the IC50 under setting [1] was 4.36 µM [middle of 5 runs].

Consider `CC(C)n1nc(-c2ccc3oc(N)nc3c2)c2c(N)ncnc21` + CNCc1ccccc1-c1csc(C(C)Nc2nc(C)nc3cc(OC)c(OC)cc23)c1, for which the IC50 is 3.06 nM (curve of first compound, second compound 0.1 µM); 2.08 nM (curve of first compound, second compound 0.316 µM); 0.991 nM (curve of first compound, second compound 1 µM); under 0.316 nM (curve of first compound, second compound 3.16 µM); under 0.316 nM (curve of first compound, second compound 10 µM). Further, the viability, T/C reads like this: (second compound 0.1 µM, first compound 0.000316 µM) 76.3%; (second compound 0.1 µM, first compound 0.001 µM) 63.9%; (second compound 0.1 µM, first compound 0.00316 µM) 50.2%; (second compound 0.1 µM, first compound 0.01 µM) 36.2%; (second compound 0.1 µM, first compound 0.0316 µM) 25.3%; (second compound 0.1 µM, first compound 0.1 µM) 23.7%. Moreover, the viability, T/C is 79% (second compound 0.316 µM, first compound 0.000316 µM); 60.7% (second compound 0.316 µM, first compound 0.001 µM); 43.3% (second compound 0.316 µM, first compound 0.00316 µM); 33.5% (second compound 0.316 µM, first compound 0.01 µM); 24.5% (second compound 0.316 µM, first compound 0.0316 µM); 21.5% (second compound 0.316 µM, first compound 0.1 µM). Further, the viability, T/C reads like this: (second compound 1 µM, first compound 0.000316 µM) 74.4%; (second compound 1 µM, first compound 0.001 µM) 50%; (second compound 1 µM, first compound 0.00316 µM) 33.6%; (second compound 1 µM, first compound 0.01 µM) 25.7%; (second compound 1 µM, first compound 0.0316 µM) 22.7%; (second compound 1 µM, first compound 0.1 µM) 19%. For the same compound, the viability, T/C (second compound 3.16 µM, first compound 0.000316 µM) is 1.37%; the viability, T/C (second compound 3.16 µM, first compound 0.001 µM) is 0.62%; the viability, T/C (second compound 3.16 µM, first compound 0.00316 µM) is 0.91%; the viability, T/C (second compound 3.16 µM, first compound 0.01 µM) is 0.17%; the viability, T/C (second compound 3.16 µM, first compound 0.0316 µM) is 0.67%; the viability, T/C (second compound 3.16 µM, first compound 0.1 µM) is 0.43%. The viability, T/C (second compound 10 µM, first compound 0.000316 µM) was 0.08%; the viability, T/C (second compound 10 µM, first compound 0.001 µM) is 0.56%; the viability, T/C (second compound 10 µM, first compound 0.00316 µM) is 0.08%; the viability, T/C (second compound 10 µM, first compound 0.01 µM) was 0.09%; the viability, T/C (second compound 10 µM, first compound 0.0316 µM) is 0.85%; the viability, T/C (second compound 10 µM, first compound 0.1 µM) is 0.31%.

The viability, T/C is the ratio of treated to control. In general, IC50 refers to the concentration at which inhibition is half-maximal.
